The source of these data is ChEMBL document CHEMBL4257466, “The use of matched molecular series networks for cross target structure activity relationship translation and potency prediction” (Medchemcomm, 2017).

The assay deals with RNA-directed RNA polymerase (Hepacivirus hominis, UniProt O39930). The assay is described as follows: Inhibition of HCV RNA polymerase.
RNA-directed RNA polymerase, sequence (O39930 whole entry): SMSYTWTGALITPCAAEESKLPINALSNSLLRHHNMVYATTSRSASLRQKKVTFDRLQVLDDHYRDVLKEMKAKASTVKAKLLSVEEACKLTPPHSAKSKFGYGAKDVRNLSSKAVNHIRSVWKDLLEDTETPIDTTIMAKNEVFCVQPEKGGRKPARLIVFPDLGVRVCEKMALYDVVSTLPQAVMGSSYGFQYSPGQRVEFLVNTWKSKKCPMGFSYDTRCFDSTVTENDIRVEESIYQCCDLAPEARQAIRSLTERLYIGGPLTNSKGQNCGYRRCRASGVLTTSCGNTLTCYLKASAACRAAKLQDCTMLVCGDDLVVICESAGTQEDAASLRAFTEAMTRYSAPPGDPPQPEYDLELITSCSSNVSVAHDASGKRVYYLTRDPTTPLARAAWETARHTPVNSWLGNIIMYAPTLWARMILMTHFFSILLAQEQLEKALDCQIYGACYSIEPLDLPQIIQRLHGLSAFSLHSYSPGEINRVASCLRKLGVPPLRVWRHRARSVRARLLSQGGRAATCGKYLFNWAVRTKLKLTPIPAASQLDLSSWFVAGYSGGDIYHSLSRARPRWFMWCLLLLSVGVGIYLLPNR
Turning to `CNC(=O)c1c(-c2ccc(F)cc2)oc2nc(CNC(=O)COC)c(C3CC3)cc12`, the IC50 is 3160 nM. For `CNC(=O)c1c(-c2ccc(F)cc2)oc2nc(CN)c(C3CC3)cc12` the value was 6310 nM; for `CNC(=O)c1c(-c2ccc(F)cc2)oc2nc(CNC(C)=O)c(C3CC3)cc12`, 631 nM.

Consider `CNC(=O)c1c(-c2ccc(F)cc2)oc2nc(CNC(=O)C3CCOC3)c(C3CC3)cc12` (stereo not given), for which inhibition was half-maximal at 2510 nM (IC50). The figure for `CNC(=O)c1c(-c2ccc(F)cc2)oc2nc(CNS(C)(=O)=O)c(C3CC3)cc12` is 501 nM.

As usually defined, the IC50 is the concentration that gives 50% inhibition. High values mean a need for much substance, low ones inhibition by little substance.
